Measured values published in patent US8420591B2, “MUC1 and galectin-3” (Dana-Farber Cancer Institute, Inc., priority 2006, dated 2013).
Where no end group is shown, it is not given here.

How the values were obtained:
MUC1-C/ED = target: T1, MUC1-C/ED (Homo sapiens, UniProt P15941); assay: In vitro binding assay: hFc-MUC1-C/ED incubated with GST-galectin-3 deletion mutants, glutathione pull-down; conditions: immunoblot anti-MUC1-C/ED
T1 construct: made in house; host or cells: CHO-K1
T1 sequence (P15941 1098-1155): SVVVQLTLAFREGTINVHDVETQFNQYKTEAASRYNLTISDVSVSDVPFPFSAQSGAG
Protocol: (§1) In vitro binding assays. hFc and hFc-MUC1-C/ED were incubated with purified galectin-3 in lysis buffer for 1 hour at 4° C. The reaction products were precipitated with protein G-Sepharose™ and immunoblotted with anti-galectin-3. In other studies, hFc-MUC1-C/ED was incubated with GST-galectin-3 deletion mutants. The reaction products were precipitated with glutathione-sepharose 4B and immunoblotted with anti-MUC1-C/ED (Ren et al., 2004).

miR-322 [1] = assay: Antisense inhibition of miR-322: galectin-3 expression in BT549/vector cells; assay type: cell-based, human; conditions: 72 h after transfection
Protocol: Immunoblotting and precipitates. Lysates were prepared from subconfluent cells as described (Li et al., 2001). Immunoblot analysis was performed with antibodies specific for MUC1-C (Ab5; Neomarkers, Fremont, Calif.), galectin-3 (Abcam, Cambridge, Mass.), β-actin (Sigma-Aldrich, St. Louis, Mo.), epidermal growth factor receptor (EGFR) (Santa Cruz Biotechnology, Santa Cruz, Calif.), and MUC1-N (DF3) (Ren et al., 2004). Immune complexes were prepared as described with antibodies specific for MUC1-C and MUC1-N (Li et al., 1998). For GST “pull-down” assays, GST or GST-galectin-3 was incubated with cell lysates for 2 hours at 4° C. and precipitated with glutathione-Sepharose™ 4B. Precipitates were subjected to immunoblotting with anti-MUC1-C, anti-galectin-3 (Santa Cruz Biotechnology, Santa Cruz, Calif.), anti-MUC1-N (DF3) (Ren et al., 2004), anti-EGFR (Santa Cruz Biotechnology), or anti-β-actin.
Quantitative real-time PCR. […] Quantification of galectin-3 transcripts was performed with primer pairs […] […] Relative gene expression was determined using the comparative ddCT (threshold) method with GAPDH as the internal control.
Antisense inhibition of miR-322. […] At 72 hours after transfection, the cells were analyzed for galectin-3 expression.

miR-322 [2] = assay: Galectin-3 mRNA stability assay after actinomycin D in transfected BT549/vector cells; assay type: cell-based, human; conditions: BT549/vector cells transfected with oligo, then actinomycin D; quantitative RT-PCR
Protocol: mRNA stability assays. […] Total RNA was isolated and analyzed for galectin-3 and GAPDH mRNA levels by quantitative RT-PCT. The half life of galectin-3 mRNA was calculated using linear regression analysis. Antisense inhibition of miR-322. An antisense 2'-O-methyl oligoribonucleotide […] NO:20) against miR-322 and a scrambled 2'-O-methyl oligoribonucleotide […] NO:21) (Integrated DNA Technologies) were transfected into BT549 cells (50 pmol/10,000 cells) in the presence of LipofectamineTM 2000. At 72 hours after transfection, the cells were analyzed for galectin-3 expression.

EGFR and MUC1 clustering = assay: Confocal microscopy of EGF-induced colocalization of EGFR and MUC1 in ZR-75-1 cells; assay type: cell-based, human; conditions: EGF for 5 min
Protocol: (§2) Cell culture. Human breast cancer (ZR-75-1, BT549) and lung cancer (CRL-5985, CRL-5909) cells were grown in RPMI1640 medium supplemented with 10% fetal bovine serum (FBS), 100 units/ml penicillin and 100 μg/ml streptomycin. The human breast cancer ([…], MCF-7), prostate cancer (LnCAP, DU145, PC3), lung cancer (A549), kidney epithelial (293) and Chinese hamster ovary (CHO-K1) cells were cultured in Dulbecco's Modified Eagle's medium (DMEM) supplemented with 10% FBS, antibiotics and 1 mM L-glutamine. The glycosylation deficient CHO-Lec2 and CHO-Lec8 cells (ATCC, Manassas, Va.) were grown in alpha minimum essential medium containing 10% FBS and antibiotics. In certain studies, cells were cultured in medium with 0.1% FBS for 24 hours and then stimulated with 100 ng/ml epidermal growth factor (EGF) (Calbiochem-Novabiochem, La Jolla, Calif.) for 5 minutes at 37° C.
Immunofluorescence microscopy. Cells were fixed in 3.7% formaldehyde, permeabilized in 0.2% Triton™ X-100 and post-fixed in 3.7% formaldehyde. The cells were blocked with 10% normal goat serum and stained with antibodies specific for MUC1-N (MAb DF3) and antibodies specific for EGFR (Santa Cruz Biotechnology, Santa Cruz, Calif.), followed by fluorescein-conjugated antibodies specific for rabbit IgG or Texas Red-conjugated antibodies specific for mouse IgG (Jackson ImmunoResearch Laboratories, West Grove, Pa.). […]

[3] = tested on: MUC1 and EGFR interaction; assay: EGF-stimulated association of MUC1 and EGFR in ZR-75-1 cells (anti-MUC1-N precipitates immunoblotted); assay type: cell-based, human; conditions: EGF for 5 min, co-immunoprecipitation
Protocol: as §2
Immunoblotting and precipitates. Lysates were prepared from subconfluent cells as described (Li et al., 2001). Immunoblot analysis was performed with antibodies specific for MUC1-C (Ab5; Neomarkers, Fremont, Calif.), galectin-3 (Abcam, Cambridge, Mass.), β-actin (Sigma-Aldrich, St. Louis, Mo.), epidermal growth factor receptor (EGFR) (Santa Cruz Biotechnology, Santa Cruz, Calif.), and MUC1-N (DF3) (Ren et al., 2004). Immune complexes were prepared as described with antibodies specific for MUC1-C and MUC1-N (Li et al., 1998). […]

[4] = target: T2, purified recombinant galectin-3 (Homo sapiens, UniProt P17931, P64H/T98P); assay: In vitro binding assay: hFc proteins incubated with purified galectin-3, protein G precipitation, anti-galectin-3 immunoblot; conditions: 1 hour at 4° C.; protein G-Sepharose precipitation
T2 construct: GST fusion proteins with full-length galectin-3 or certain deletion mutants were prepared; made in house; host or cells: E. coli
T2 sequence (P17931 whole entry P64H/T98P, the tested form may be a part): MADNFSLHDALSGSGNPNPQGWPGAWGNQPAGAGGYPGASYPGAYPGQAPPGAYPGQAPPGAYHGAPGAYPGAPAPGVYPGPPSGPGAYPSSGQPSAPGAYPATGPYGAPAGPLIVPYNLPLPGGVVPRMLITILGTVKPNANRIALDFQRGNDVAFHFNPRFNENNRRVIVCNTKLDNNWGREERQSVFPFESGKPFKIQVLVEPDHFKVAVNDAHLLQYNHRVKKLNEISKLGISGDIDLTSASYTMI
Protocol: as §1

galectin-3(63-250) = target: T3, galectin-3(63-250) (Homo sapiens, UniProt P17931, T98P); assay: Surface plasmon resonance (BIAcore): binding of MUC1-C/ED to immobilized galectin-3(63-250); conditions: galectin-3(63-250) immobilized on sensor chip, 25° C., 1:1 binding with a drifting base model, read-out: dissociation constant (KD) for binding to galectin-3(63-250)
T3 construct: made in house; host or cells: E. coli
T3 sequence (P17931 with tags, fused parts or gaps T98P): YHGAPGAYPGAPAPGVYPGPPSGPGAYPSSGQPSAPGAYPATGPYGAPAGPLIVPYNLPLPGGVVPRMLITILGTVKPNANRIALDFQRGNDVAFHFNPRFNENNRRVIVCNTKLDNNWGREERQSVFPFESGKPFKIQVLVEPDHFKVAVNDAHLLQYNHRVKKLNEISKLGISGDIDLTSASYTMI
Protocol: (§3) Surface plasmon resonance analysis. Surface plasmon resonance measurements were determined using a BIACORE™ 3000 instrument at 25° C. Galectin-3 and galectin-3(63-250) were covalently coupled to CM5 Biacore™ sensor chips (500-1000 RU) at 30 μg/ml using the Biacore™ Amine Coupling kit. hFc-MUC1-C/ED and hFc diluted in running buffer (50 mM Tris-HCl, pH 7.4, 150 mM NaCl, 0.005% NP-40) were injected across galectin-3, galectin-3(63-250) or control flow cells at a rate of 30 μl/min. Regeneration of the sensor surface was performed with a 30-second pulse of 100 mM lactose. Association and dissociation kinetic constants were calculated by BIAevaluation™ software using 1:1 binding with a drifting base model.

galectin-3 = target: T4, galectin-3 (Homo sapiens, UniProt P17931); assay: Surface plasmon resonance (BIAcore): binding of MUC1-C/ED to immobilized galectin-3; conditions: galectin-3 immobilized on sensor chip, 25° C., 1:1 binding with a drifting base model, read-out: dissociation constant (KD) for binding to galectin-3
T4 construct: GST fusion proteins with full-length galectin-3 or certain deletion mutants were prepared; made in house; host or cells: E. coli
T4 sequence (P17931 whole entry P64H/T98P, the tested form may be a part): as the sequence (P17931 whole entry P64H/T98P, the tested form may be a part) above
Protocol: as §3

GST-galectin-3(1-138): GST fusion of galectin-3 deletion mutant 1-138 that includes the ND
binding of MUC1-C/ED to GST-galectin-3 fusion proteins (pull-down) (MUC1-C/ED): no detectable binding

GST-galectin-3: GST fusion protein with full-length galectin-3
binding of MUC1-C/ED to GST-galectin-3 fusion proteins (pull-down) (MUC1-C/ED): pulled-down

anti-miR-322: antisense 2′-O-methyl oligoribonucleotide (GGUAUAGCAGCGCCUCACGUUUUG) (SEQ ID NO:20) against miR-322 (all 2'-O-methyl, backbone not given here)
galectin-3 expression at the protein level (miR-322 [1]; immunoblotting): upregulates
galectin-3 expression at the mRNA level (miR-322 [1]; quantitative RT-PCR): upregulates
half-life of galectin-3 transcripts (miR-322 [2]): 19.5 h

OC[C@H]1O[C@@](CO)(O[C@H]2O[C@H](CO)[C@@H](O)[C@H](O)[C@H]2O)[C@@H](O)[C@@H]1O [sucrose]
EGF-induced colocalization of EGFR and MUC1 in clusters (EGFR and MUC1 clustering): not sucrose
EGF-stimulated binding of MUC1 and EGFR [3]: not sucrose

scrambled oligo: scrambled 2′-O-methyl oligoribonucleotide (CACGGAUCUAGGUCGUAACGUAGG) (SEQ ID NO:21), control (all 2'-O-methyl, backbone not given here) [reference compound]
half-life of galectin-3 transcripts (miR-322 [2]): 13.0 h

GST-galectin-3(1-62): GST fusion of galectin-3 deletion mutant 1-62 that includes the ND
binding of MUC1-C/ED to GST-galectin-3 fusion proteins (pull-down) (MUC1-C/ED): no detectable binding

OC[C@H]1O[C@@H](O[C@H]2[C@H](O)[C@@H](O)C(O)O[C@@H]2CO)[C@H](O)[C@@H](O)[C@H]1O (stereo partly drawn) [lactose]
EGF-induced colocalization of EGFR and MUC1 in clusters (EGFR and MUC1 clustering): blocked
EGF-stimulated binding of MUC1 and EGFR [3]: attenuated

hFc-MUC1-C/ED: MUC1-C extracellular domain (58 amino acids) fused to human Fc, secreted from CHO-K1 cells (SVVVQLTLAFREGTINVHDVETQFNQYKTEAASRYNLTISDVSVSDVPFPFSAQSGAG; not fully specified (N-terminus); also: fused to dimerising human Fc)
binding of purified recombinant galectin-3 (immunoblot of adsorbates) [4]: binding of galectin-3 to hFc-MUC1-C/ED
Kd (galectin-3(63-250)): 9.8 nM
Kd (galectin-3): 11.1 nM

GST-galectin-3(63-250): GST fusion of galectin-3 amino acids 63-250 that contains the CRD
binding of MUC1-C/ED to GST-galectin-3 fusion proteins (pull-down) (MUC1-C/ED): pulled-down
